In patent publication US20060263802A1 (priority 2003, published 2006):

Tests used:
Assay type in all cases: binding
[1] = tested on: human monoclonal antibody CRJA
[2] = tested on: human monoclonal antibody CR57
[3] = tested on: human monoclonal antibody CRJB
[4] = tested on: human monoclonal antibody CRJA; remark: listed apart in the source
[5] = tested on: human monoclonal antibody CRJB; remark: listed apart in the source
[6] = tested on: human monoclonal antibody CR57; remark: listed apart in the source

Row | Sequence | Binding of CRJA to linear peptide (PEPSCAN-ELISA signal) [1] | Binding of CR57 (10 μg/ml) to looped/cyclic peptide (PEPSCAN-ELISA signal) [2] | Binding of CRJB (10 μg/ml) to looped/cyclic peptide (PEPSCAN-ELISA signal) [3] | Binding of CRJA (10 μg/ml) to looped/cyclic peptide (PEPSCAN-ELISA signal) [4] | Binding of CRJB to linear peptide (PEPSCAN-ELISA signal) [5] | Binding of CR57 to linear peptide (PEPSCAN-ELISA signal) [6] | Binding of CR57 (10 μg/ml) to looped/cyclic peptide (PEPSCAN-ELISA) [2] | Binding of CRJB (10 μg/ml) to looped/cyclic peptide (PEPSCAN-ELISA) [3] | Binding of CRJA (10 μg/ml) to looped/cyclic peptide (PEPSCAN-ELISA) [4] | Binding of human monoclonal antibody CRJA to linear peptide (PEPSCAN-ELISA signal) [1] | Binding of CR57 to looped/cyclic peptide (PEPSCAN-ELISA signal) [2] | Binding of CRJB to looped/cyclic peptide (PEPSCAN-ELISA signal) [3] | Binding of CRJA to looped/cyclic peptide (PEPSCAN-ELISA signal) [4] | Binding of human monoclonal antibody CRJB to linear peptide (PEPSCAN-ELISA signal) [5] | Binding of human monoclonal antibody CR57 to linear peptide (PEPSCAN-ELISA signal) [6]
1 | PNNLVVEDEGCTNLS | 86 | 100 | 60 | 96 | 107 | 78 |  |  |  |  |  |  |  |  | 
2 | PPDQLVNLHDFRSDE | 118 |  |  |  | 120 | 107 | 101 | 83 | 97 |  |  |  |  |  | 
3 | PRLGMSCDIFTNSRG | 108 | 87 | 89 | 96 | 112 | 72 |  |  |  |  |  |  |  |  | 
4 | PRYEESLHNPYPDYR | 103 | 92 | 79 | 99 | 115 | 73 |  |  |  |  |  |  |  |  | 
5 | PSGKCSGVAVSSTYC | 106 | 58 | 48 | 73 | 112 | 56 |  |  |  |  |  |  |  |  | 
6 | PSKGCLRVGGRCHPH | 78 |  |  |  | 138 | 69 | 92 | 99 | 71 |  |  |  |  |  | 
7 | PSTVFKDGDEAEDFV |  |  |  |  |  |  |  |  |  | 105 | 118 | 101 | 113 | 143 | 104
8 | PSVADLDPYDRSLHS | 72 | 57 | 33 | 62 | 114 | 44 |  |  |  |  |  |  |  |  | 
9 | PTPDACRAAYNWKMA | 129 | 114 | 112 | 136 | 125 | 99 |  |  |  |  |  |  |  |  | 
10 | PWSPIDIHHLSCPNN | 76 | 93 | 75 | 91 | 104 | 62 |  |  |  |  |  |  |  |  | 
11 | PYDRSLHSRVFPSGK | 104 | 134 | 90 | 113 | 120 | 86 |  |  |  |  |  |  |  |  | 
12 | PYPDYRWLRTVKTTK | 84 | 88 | 92 | 76 | 93 | 65 |  |  |  |  |  |  |  |  | 
13 | QHMELLESSVIPLVH | 87 |  |  |  | 146 | 98 | 132 | 97 | 111 |  |  |  |  |  | 
14 | QLVNLHDFRSDEIEH | 89 |  |  |  | 113 | 60 | 47 | 44 | 66 |  |  |  |  |  | 
15 | QQHMELLESSVIPLV | 100 |  |  |  | 134 | 103 | 141 | 92 | 94 |  |  |  |  |  | 
